Measured values taken from ChEMBL document CHEMBL1201862, “PubChem BioAssay data set” (2004).
The source made the active and inactive calls.

The molecules below were run on Streptococcus (assay: GAS UMAA2166 growth inhibition – luminescence, BacTiterGlo, counter-screen for streptokinase expression inhibitor project, dose response (AID 1915);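 further: potency for reduction of bacterial viability or growth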).
Type: functional, organism-based

Structure (SMILES) | EC50
Cc1ccc(-n2nnnc2SCC(=O)c2cc(C)n(-c3cc(C)on3)c2C)c(C)c1 | > 150 µM (not active)
CCn1c(C)nc2cc(C(=O)NNC(=S)NC(=O)c3ccc(OC)cc3)ccc21 | 95.3 µM (active)
Cc1sc2ncnc(N3CCC(C(=O)Nc4ccc(Cl)cc4Cl)CC3)c2c1C | 66 µM (active)
Cc1cc(NC(=O)c2cnccn2)no1 | > 150 µM (not active)
Cc1ccc(-c2nc3nc(O)cc(NC(=O)c4cccs4)n3n2)cc1 | > 150 µM (not active)
Cc1ccc(NC(=S)NC(=O)c2ccc(F)cc2)cc1S(=O)(=O)Nc1cccc(Cl)c1 | 54.2 µM (active)

The molecules below were run against T1, Rac GTPase-activating protein 1 (Homo sapiens, UniProt Q9H0H5) (assay: blockers of MgcRacGAP-driven Rac1 GTP hydrolysis – biochemical, ADP Hunter fluorescence, primary and confirmatory, confirmation (AID 624330)).
T1 sequence (Q9H0H5 whole entry): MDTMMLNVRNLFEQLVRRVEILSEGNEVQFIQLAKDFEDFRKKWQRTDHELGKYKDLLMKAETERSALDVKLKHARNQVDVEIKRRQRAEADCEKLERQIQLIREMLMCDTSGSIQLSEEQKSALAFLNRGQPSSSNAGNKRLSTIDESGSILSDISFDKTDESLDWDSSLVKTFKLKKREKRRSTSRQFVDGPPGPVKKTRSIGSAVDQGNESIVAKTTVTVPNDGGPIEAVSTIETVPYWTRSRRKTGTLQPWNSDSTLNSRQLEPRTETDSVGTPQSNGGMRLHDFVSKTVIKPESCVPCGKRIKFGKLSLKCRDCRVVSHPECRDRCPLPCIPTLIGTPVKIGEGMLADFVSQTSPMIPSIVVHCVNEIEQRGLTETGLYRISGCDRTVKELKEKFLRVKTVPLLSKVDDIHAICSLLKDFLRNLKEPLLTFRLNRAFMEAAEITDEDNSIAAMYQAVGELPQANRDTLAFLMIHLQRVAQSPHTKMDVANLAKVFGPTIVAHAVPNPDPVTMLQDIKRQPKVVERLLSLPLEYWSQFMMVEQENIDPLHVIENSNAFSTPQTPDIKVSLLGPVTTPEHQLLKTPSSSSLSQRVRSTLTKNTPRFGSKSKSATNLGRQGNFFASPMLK
Type: functional

Structure (SMILES) | IC50
CCOC(=O)c1c(N)sc2c(OC)c(Br)ccc12 | 203 µM (active)
CC(C)N1CCN(C(=O)c2cccc(Cl)c2)CC1 | 295 µM (active)
Oc1ccc2c(ccc3[nH]cnc32)c1 | 43.9 µM (active)
Nc1ccc(OCCc2ccccc2)cc1 | 31.2 µM (active)
COc1ccc(CNc2ncc(-c3ccc(Br)cc3)n2C)cc1OC | 55.6 µM (active)
CCN1CCN(CC(=O)Nc2nc3ccccc3s2)CC1 | 55.7 µM (active)
O=C(c1c(Cl)cccc1Cl)N1CCN(c2cccc3[nH]ccc23)CC1 | 50.4 µM (active)
O=C(CN1CCN(S(=O)(=O)c2ccccc2F)CC1)N1CCc2ccccc2C1 | 47.1 µM (active)
COCc1cc(C)nc(OCC(=O)N/N=C/c2ccc(O)cc2)c1C#N | 83.2 µM (active)

What follows are molecules tested against Cytochrome P450 2D6 (Homo sapiens, UniProt P10635).
Cytochrome P450 2D6, sequence (P10635 whole entry): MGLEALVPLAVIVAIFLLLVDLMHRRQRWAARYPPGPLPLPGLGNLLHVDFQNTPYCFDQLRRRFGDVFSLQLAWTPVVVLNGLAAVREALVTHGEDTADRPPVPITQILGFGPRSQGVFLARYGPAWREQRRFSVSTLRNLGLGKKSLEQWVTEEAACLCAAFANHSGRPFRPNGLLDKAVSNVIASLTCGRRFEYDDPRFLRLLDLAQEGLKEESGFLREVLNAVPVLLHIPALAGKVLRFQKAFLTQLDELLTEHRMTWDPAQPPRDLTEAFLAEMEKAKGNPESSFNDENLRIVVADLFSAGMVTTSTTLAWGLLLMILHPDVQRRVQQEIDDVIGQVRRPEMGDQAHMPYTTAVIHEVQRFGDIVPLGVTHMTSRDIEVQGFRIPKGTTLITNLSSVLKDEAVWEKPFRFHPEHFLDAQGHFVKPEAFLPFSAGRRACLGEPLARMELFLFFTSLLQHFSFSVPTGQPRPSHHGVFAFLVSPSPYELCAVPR

Structure (SMILES) | AC50
N#Cc1cccc(NC(=O)N2CC3(CCN(C(=O)c4cc(C(F)(F)F)cc(C(F)(F)F)c4)CC3)C2)c1 | 20 µM (inconclusive)

These molecules were tested against T2, Streptokinase A (Streptococcus pyogenes serotype M1, UniProt P10520) (assay: viability-normalized secreted streptokinase activity reduction – plasminogen activation absorbance, OD405, dose response (AID 1914);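 further: secreted streptokinase activity via plasminogen activation per viability signal from cell pellet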).
T2 sequence (P10520 whole entry): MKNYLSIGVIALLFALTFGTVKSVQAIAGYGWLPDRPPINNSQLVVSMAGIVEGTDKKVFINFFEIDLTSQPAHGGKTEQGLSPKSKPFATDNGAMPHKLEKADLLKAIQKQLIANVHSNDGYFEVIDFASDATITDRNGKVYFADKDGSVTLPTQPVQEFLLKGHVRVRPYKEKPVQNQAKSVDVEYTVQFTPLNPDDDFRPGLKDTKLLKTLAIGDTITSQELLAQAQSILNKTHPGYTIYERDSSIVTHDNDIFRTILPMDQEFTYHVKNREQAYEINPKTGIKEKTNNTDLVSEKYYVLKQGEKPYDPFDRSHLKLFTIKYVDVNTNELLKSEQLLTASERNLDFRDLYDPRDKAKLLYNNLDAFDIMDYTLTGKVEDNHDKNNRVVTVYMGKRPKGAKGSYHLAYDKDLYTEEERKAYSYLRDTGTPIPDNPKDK
Type: functional, Streptococcus pyogenes M1 GAS

Structure (SMILES) | EC50
Cc1ccc(-n2nnnc2SCC(=O)c2cc(C)n(-c3cc(C)on3)c2C)c(C)c1 | 89.2 µM (active)
CCn1c(C)nc2cc(C(=O)NNC(=S)NC(=O)c3ccc(OC)cc3)ccc21 | > 150 µM (not active)
Cc1sc2ncnc(N3CCC(C(=O)Nc4ccc(Cl)cc4Cl)CC3)c2c1C | 91.7 µM (active)
O=C(CSc1nc(-c2ccc(Cl)cc2)nc(=O)[nH]1)Nc1cccc(Cl)c1 | 4.65 µM (active)
Cc1cc(NC(=O)c2cnccn2)no1 | > 150 µM (not active)
NC(=NNC(=O)c1sccc1OCc1ccc(Cl)cc1Cl)c1ccccn1 | 35.4 µM (active)
Cc1nc(Nc2nc(-c3ccccc3)cc(=O)[nH]2)nc2ccccc12 | > 150 µM (not active)
Cc1ccc(-c2nc3nc(O)cc(NC(=O)c4cccs4)n3n2)cc1 | > 150 µM (not active)
CC(C)c1ccc(C(=O)NC(=S)Nc2ccc3[nH]c(=O)[nH]c3c2)cc1 | > 150 µM (not active)
Cc1ccc(NC(=S)NC(=O)c2ccc(F)cc2)cc1S(=O)(=O)Nc1cccc(Cl)c1 | 11.5 µM (active)
COc1ccc(C(=O)CSc2[nH]c(=O)cc(C(F)(F)F)c2C#N)cc1 | 8.62 µM (active)

What follows are molecules tested on Streptococcus sp. 'group A' (assay: Streptococcus pyogenes SK(-)GAS viability under kanamycin – luminescence, BacTiterGlo, confirmation, counter-screen for streptokinase expression inhibitor project, dose response (AID 1900)).
Type: functional, organism-based

Structure (SMILES) | EC50
Cc1ccc(-n2nnnc2SCC(=O)c2cc(C)n(-c3cc(C)on3)c2C)c(C)c1 | 25.6 µM (active)
CCn1c(C)nc2cc(C(=O)NNC(=S)NC(=O)c3ccc(OC)cc3)ccc21 | 9.55 µM (active)
Cc1sc2ncnc(N3CCC(C(=O)Nc4ccc(Cl)cc4Cl)CC3)c2c1C | 23.6 µM (active)
Cc1cc(NC(=O)c2cnccn2)no1 | > 150 µM (not active)
Cc1ccc(-c2nc3nc(O)cc(NC(=O)c4cccs4)n3n2)cc1 | 15.4 µM (active)
Cc1ccc(NC(=S)NC(=O)c2ccc(F)cc2)cc1S(=O)(=O)Nc1cccc(Cl)c1 | 1.48 µM (active)

What follows are molecules tested against Cytochrome P450 3A4 (Homo sapiens, UniProt P08684).
Cytochrome P450 3A4, sequence (P08684 whole entry): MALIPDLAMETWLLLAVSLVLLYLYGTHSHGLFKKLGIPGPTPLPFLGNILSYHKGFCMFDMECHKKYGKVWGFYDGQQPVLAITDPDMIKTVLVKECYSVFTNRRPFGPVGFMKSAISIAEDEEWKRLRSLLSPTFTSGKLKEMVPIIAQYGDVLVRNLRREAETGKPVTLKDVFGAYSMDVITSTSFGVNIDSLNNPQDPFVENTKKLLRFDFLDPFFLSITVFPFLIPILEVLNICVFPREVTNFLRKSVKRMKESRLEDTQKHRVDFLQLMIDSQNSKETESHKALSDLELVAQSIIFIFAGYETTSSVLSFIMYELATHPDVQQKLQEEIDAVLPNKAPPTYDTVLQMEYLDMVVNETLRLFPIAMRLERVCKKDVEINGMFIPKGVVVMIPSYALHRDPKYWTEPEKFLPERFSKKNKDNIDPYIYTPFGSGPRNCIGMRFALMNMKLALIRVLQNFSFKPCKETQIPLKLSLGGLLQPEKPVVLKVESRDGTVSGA

Structure (SMILES) | AC50
O=C(Nc1ccc2c(c1)nc1n2CCN(C2CCCCC2)C1)NC1CCCCC1 | 15.8 µM (inconclusive)
N#Cc1cccc(NC(=O)N2CC3(CCN(C(=O)c4cc(C(F)(F)F)cc(C(F)(F)F)c4)CC3)C2)c1 | 31.6 µM (inconclusive)
O=C(NCc1cc(F)cc2c1OCCO2)[C@H]1C[C@@H]1[C@H](NP(=O)(c1ccccc1)c1ccccc1)c1ccccc1 | 3.98 µM (inconclusive)
